Assay results reported in ChEMBL document CHEMBL5465560, “Selectivity Literature for EUbOPEN Chemogenomic Library” (2024).
Blank lines part the entries; values can stand above or below the compound they belong to.

Experiments:
[1] = target: T1, Serine/threonine-protein kinase RIO3 (Homo sapiens) (UniProt O14730); assay: Selectivity interaction (KinomeScan (DiscoverX)) EUB0001868a RIOK3; conditions: at 1 µM
T1 sequence (whole entry): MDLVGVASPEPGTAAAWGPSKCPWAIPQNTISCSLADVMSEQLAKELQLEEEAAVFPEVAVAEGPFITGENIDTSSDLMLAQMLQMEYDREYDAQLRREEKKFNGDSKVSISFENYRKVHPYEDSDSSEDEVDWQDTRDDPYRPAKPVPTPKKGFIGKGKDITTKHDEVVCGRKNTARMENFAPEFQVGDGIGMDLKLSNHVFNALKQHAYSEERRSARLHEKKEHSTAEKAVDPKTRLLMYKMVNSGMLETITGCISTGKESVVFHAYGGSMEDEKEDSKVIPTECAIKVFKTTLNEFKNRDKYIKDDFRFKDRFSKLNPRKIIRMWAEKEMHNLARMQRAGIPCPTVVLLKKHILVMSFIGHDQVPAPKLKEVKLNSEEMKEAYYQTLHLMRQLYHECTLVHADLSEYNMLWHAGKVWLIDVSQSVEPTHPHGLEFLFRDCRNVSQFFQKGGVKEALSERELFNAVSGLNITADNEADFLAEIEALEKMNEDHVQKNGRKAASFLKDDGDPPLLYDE

[2] = target: T2, Inhibitor of nuclear factor kappa-B kinase subunit epsilon (Homo sapiens) (UniProt Q14164); assay: Selectivity interaction (KinomeScan (DiscoverX)) EUB0000607a IKBKE; conditions: at 10 µM
T2 sequence (whole entry): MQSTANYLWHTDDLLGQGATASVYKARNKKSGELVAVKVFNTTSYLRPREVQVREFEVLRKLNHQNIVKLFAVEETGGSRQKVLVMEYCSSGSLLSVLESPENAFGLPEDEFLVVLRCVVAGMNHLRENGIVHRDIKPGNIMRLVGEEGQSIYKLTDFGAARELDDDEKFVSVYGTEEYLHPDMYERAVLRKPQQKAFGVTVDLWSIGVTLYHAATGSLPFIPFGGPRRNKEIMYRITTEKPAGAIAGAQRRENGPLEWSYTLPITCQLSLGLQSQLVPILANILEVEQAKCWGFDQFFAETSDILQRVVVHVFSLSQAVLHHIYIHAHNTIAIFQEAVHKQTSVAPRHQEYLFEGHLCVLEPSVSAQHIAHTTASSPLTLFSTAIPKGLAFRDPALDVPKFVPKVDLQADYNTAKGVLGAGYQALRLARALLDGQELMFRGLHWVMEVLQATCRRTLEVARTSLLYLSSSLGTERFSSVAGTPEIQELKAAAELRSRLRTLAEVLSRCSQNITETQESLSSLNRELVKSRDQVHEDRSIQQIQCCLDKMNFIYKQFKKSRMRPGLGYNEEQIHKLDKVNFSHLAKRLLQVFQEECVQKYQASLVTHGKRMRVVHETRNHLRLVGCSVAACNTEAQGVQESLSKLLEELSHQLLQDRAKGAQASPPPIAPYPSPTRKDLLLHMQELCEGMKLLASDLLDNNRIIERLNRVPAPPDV

[3] = target: Serine/threonine-protein kinase SIK1 (Homo sapiens) (UniProt P57059); assay: Selectivity interaction (Upstate Kinase Profiler service (Millipore)) EUB0000056c SIK1; conditions: at 1 µM
[4] = target: T3, MAP/microtubule affinity-regulating kinase 4 (Homo sapiens) (UniProt Q96L34); assay: Selectivity interaction (Kinase panel (DSF assay)) EUB0001559a MARK4
T3 sequence (whole entry): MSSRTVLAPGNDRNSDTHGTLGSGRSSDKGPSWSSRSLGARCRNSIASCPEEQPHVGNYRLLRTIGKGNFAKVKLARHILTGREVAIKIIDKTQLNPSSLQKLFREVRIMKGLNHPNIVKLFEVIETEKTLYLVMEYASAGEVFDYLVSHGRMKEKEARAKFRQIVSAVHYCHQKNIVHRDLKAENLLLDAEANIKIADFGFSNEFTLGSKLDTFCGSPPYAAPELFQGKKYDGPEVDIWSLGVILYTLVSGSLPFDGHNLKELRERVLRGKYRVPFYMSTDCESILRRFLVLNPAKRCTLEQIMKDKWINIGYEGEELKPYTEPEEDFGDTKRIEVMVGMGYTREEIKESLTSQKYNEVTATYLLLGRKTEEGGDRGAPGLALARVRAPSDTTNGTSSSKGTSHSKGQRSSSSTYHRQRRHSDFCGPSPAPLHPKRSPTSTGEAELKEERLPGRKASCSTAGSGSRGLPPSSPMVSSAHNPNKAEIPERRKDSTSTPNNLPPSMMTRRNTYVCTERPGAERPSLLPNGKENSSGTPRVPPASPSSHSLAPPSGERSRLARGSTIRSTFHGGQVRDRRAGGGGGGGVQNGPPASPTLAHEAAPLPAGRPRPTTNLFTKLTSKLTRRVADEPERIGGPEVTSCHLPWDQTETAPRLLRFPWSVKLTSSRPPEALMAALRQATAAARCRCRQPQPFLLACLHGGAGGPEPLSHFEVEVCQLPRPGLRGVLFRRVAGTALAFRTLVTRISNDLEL

[5] = target: T4, Receptor-interacting serine/threonine-protein kinase 1 (Homo sapiens) (UniProt Q13546); assay: Selectivity interaction (KinomeScan (DiscoverX)) EUB0000595a RIPK1; conditions: at 10 µM
T4 sequence (whole entry): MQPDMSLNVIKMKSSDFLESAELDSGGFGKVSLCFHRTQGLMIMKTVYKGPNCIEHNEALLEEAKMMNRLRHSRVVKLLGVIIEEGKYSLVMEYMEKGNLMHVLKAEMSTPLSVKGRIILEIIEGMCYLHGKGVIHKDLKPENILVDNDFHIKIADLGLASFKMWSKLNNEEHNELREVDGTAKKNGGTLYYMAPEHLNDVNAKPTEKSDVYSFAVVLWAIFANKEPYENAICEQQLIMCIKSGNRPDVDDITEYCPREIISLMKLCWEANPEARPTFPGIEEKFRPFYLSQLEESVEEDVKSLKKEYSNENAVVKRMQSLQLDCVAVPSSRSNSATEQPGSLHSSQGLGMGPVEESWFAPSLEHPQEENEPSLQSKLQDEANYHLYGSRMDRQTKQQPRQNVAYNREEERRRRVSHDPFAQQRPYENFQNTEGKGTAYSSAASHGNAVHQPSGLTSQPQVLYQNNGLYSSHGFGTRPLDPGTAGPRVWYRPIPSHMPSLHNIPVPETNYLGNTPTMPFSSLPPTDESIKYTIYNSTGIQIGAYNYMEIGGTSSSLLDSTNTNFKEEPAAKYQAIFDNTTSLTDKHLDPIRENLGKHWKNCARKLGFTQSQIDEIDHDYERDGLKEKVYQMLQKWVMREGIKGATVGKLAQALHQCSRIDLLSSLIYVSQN

[6] = target: Mitogen-activated protein kinase 9 (Homo sapiens, UniProt P45984); assay: Selectivity interaction (Kinase panel (enzymatic assay)) EUB0000595a MAPK9
[7] = target: Serine/threonine-protein kinase/endoribonuclease IRE1 (Homo sapiens) (UniProt O75460); assay: Selectivity interaction (KinomeScan (DiscoverX)) EUB0000045b ERN1
Chain of Serine/threonine-protein kinase/endoribonuclease IRE1 (Homo sapiens) (O75460 19-977 limits assumed): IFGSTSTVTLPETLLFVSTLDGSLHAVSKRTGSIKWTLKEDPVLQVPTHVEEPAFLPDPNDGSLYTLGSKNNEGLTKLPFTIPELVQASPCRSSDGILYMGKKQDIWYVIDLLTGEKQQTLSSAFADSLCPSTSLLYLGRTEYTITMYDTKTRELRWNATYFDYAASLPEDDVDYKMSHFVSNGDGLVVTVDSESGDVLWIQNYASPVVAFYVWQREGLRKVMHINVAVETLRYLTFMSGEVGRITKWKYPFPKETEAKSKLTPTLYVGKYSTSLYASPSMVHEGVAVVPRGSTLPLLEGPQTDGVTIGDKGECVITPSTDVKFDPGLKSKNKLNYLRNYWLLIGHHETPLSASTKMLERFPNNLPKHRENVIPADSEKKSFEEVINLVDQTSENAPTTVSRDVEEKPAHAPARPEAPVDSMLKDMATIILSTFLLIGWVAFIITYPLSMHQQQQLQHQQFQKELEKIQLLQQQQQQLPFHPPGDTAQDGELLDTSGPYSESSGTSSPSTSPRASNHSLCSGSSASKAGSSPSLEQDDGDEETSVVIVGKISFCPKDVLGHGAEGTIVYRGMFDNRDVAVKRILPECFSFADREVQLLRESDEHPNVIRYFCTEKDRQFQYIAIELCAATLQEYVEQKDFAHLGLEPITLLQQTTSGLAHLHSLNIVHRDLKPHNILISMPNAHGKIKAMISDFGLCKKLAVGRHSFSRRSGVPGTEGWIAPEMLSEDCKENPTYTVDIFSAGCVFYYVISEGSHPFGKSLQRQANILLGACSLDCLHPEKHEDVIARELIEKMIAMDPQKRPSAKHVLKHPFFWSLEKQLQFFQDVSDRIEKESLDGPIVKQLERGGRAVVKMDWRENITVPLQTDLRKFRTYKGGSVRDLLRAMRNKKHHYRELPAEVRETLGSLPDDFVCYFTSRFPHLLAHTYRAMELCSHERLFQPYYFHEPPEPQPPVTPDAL

Chain of Mitogen-activated protein kinase 9 (P45984 whole entry): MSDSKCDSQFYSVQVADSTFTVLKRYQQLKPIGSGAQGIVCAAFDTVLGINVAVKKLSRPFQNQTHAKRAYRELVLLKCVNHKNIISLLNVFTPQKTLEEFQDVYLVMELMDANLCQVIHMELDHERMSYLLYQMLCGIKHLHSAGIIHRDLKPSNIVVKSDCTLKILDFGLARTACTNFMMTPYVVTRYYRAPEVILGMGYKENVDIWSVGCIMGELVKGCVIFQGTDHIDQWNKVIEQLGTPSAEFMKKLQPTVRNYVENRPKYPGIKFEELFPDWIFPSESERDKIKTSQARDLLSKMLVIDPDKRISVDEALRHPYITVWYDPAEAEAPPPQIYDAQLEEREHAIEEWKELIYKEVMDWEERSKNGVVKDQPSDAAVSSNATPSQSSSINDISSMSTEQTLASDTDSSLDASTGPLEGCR
Chain of Serine/threonine-protein kinase SIK1 (Homo sapiens) (P57059 whole entry): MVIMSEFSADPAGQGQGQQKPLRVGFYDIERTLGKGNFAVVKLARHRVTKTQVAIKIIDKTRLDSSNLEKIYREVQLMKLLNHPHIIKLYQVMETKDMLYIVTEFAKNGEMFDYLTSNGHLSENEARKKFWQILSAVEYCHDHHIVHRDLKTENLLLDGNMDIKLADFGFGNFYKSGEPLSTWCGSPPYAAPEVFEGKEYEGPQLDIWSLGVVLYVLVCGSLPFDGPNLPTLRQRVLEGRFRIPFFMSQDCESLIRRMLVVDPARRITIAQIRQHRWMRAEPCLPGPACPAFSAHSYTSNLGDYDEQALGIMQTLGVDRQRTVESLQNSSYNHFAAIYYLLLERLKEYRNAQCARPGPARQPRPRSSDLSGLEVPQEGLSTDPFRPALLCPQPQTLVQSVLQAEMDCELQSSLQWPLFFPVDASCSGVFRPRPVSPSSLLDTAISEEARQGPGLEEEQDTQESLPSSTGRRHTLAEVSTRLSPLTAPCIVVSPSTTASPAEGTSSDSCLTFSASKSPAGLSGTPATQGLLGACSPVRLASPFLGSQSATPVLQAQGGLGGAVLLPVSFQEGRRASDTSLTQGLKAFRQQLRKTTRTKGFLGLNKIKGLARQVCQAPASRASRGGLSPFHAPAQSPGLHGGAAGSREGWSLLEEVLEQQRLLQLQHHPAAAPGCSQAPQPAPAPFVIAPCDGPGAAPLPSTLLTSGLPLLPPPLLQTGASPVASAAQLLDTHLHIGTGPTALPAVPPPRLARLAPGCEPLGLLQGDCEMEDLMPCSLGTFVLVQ

% of control [1]: 19%
SMILES: Cc1cc(-c2ccnc(Nc3cnn(C)c3)n2)ccc1CNC(=O)N1CC(OC(C)C)C1

% of inhibition [3]: 4%
SMILES: Cc1ccc(-c2ccc3c(ccc4sc5c(c43)NC[C@@H](C)NC5=O)n2)cn1

dTM [4]: 0.9 K
SMILES: CN(C(=O)c1cnn2cccnc12)c1cc2c(cc1N1CCOCC1)C(=O)N(C[C@@H](F)C(C)(C)O)C2

The next lines start with the compound.

SMILES: CNC(=O)Nc1ccc(-c2nc(N3CC4CCC(C3)O4)c3cnn(C4CCC5(CC4)OCCO5)c3n2)cc1
% of control [2]: 100%

SMILES: COCC(=O)NC/C=C/c1ccc2ncnc(Nc3ccc(Oc4ccc(C)nc4)c(C)c3)c2c1 [CP-724714]
% of control [5]: 100%
IC50 [6]: > 10 µM

SMILES: C=CC(=O)Nc1cc(-n2c(=O)ccc3cnc4ccc(-c5ccc(NS(C)(=O)=O)cc5)cc4c32)ccc1C
% of control ([7]; at 1 µM): 100%
% of control ([7]; at 10 µM): 99%
